Test results as given in ChEMBL document CHEMBL1152554, “Synthesis and pharmacological evaluation of 6-naltrexamine analogs for alcohol cessation” (Bioorg Med Chem, 2009).
pEC50, pKi: −log10 of the molar value. Active and inactive are the calls of the source. The rule behind the calls is not given here.

Legend:
[1] = target: T1, Nociceptin receptor (Homo sapiens, UniProt P41146); assay: Activity at NOP expressed in HEK293 cells assessed as stimulation of [35S]GTPgammaS binding relative to basal level; assay type: functional, cell-based
T1 sequence (P41146 whole entry): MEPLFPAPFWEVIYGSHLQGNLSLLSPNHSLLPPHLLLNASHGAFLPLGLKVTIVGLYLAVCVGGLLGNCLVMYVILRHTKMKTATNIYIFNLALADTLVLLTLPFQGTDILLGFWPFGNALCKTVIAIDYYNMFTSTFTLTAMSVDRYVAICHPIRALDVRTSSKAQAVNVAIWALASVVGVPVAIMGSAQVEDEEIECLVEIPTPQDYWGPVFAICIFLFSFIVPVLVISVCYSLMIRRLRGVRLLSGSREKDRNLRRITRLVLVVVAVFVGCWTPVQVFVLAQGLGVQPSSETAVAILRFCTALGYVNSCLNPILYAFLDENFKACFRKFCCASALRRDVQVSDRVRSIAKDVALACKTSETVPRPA

[2] = Ratio of drug level in brain to plasma in Wistar rat at 400 ug/kg, po after […]; assay type: ADME, organism-based; conditions: 0.4 mg/kg, read-out: BPR
[3] = test system: Liver microsomes; conditions: human
[4] = test system: Rattus norvegicus; assay: Inhibition of saccharin intake in sc dosed Wistar rat by saccharin-self administration test; assay type: functional, organism-based
[5] = target: T1, Nociceptin receptor; assay: biochemical
[6] = target: T1, Nociceptin receptor; assay: biochemical; remark: listed apart in the source
[7] = mouse, microsomes
[8] = in vitro; conditions: mouse, liver microsomes
[9] = target: T1, Nociceptin receptor; assay: biochemical; remark: listed apart in the source

SMILES | Stability [3] | pEC50 [6] | Stability [7] | also measured
Oc1ccc2c3c1O[C@H]1c4[nH]c5ccccc5c4C[C@@]4(O)[C@@H](C2)N(CC2CC2)CC[C@]314 |  |  |  | Emax [1]: 109%
O=C(O)C(=O)O.O=[14C](N[C@@H]1CC[C@@]2(O)[C@H]3Cc4ccc(O)c5c4[C@@]2(CCN3CC2CC2)[C@H]1O5)c1ccc(Br)cc1 |  |  |  | Kp at […] [2]: 2.3
O=C(N[C@@H]1CC[C@@]2(O)[C@H]3Cc4ccc(O)c5c4[C@@]2(CCN3CC2CC2)[C@H]1O5)c1ccc(Br)cc1.O=C(O)C(=O)O | Stable | < 5.00 |  | inhibition [4]: Active; pKi [5]: < 5.00
Cc1ccc(C(=O)N[C@@H]2CC[C@@]3(O)[C@H]4Cc5ccc(O)c6c5[C@@]3(CCN4CC3CC3)[C@H]2O6)cc1.O=C(O)C(=O)O | Stable |  | Stable | 
O=C(N[C@@H]1CC[C@@]2(O)[C@H]3Cc4ccc(O)c5c4[C@@]2(CCN3CC2CC2)[C@H]1O5)c1ccc(C(F)(F)F)cc1.O=C(O)C(=O)O | Stable |  | Stable | 
C=C1CC[C@@]2(O)[C@H]3Cc4ccc(O)c5c4[C@@]2(CCN3CC2CC2)[C@H]1O5 |  |  |  | half-life [8]: 20 min
CC(C)(C)c1ccc(C(=O)N[C@@H]2CC[C@@]3(O)[C@H]4Cc5ccc(O)c6c5[C@@]3(CCN4CC3CC3)[C@H]2O6)cc1.O=C(O)C(=O)O |  |  | Stable | 
O=C(N[C@@H]1CC[C@@]2(O)[C@H]3Cc4ccc(O)c5c4[C@@]2(CCN3CC2CC2)[C@H]1O5)c1ccc(Cl)cc1 |  | < 5.00 |  | 
O=C(N[C@@H]1CC[C@@]2(O)[C@H]3Cc4ccc(O)c5c4[C@@]2(CCN3CC2CC2)[C@H]1O5)c1ccc(Cl)c(Cl)c1.O=C(O)C(=O)O |  | < 5.00 | Stable | pEC50 [9]: 10.00
